Reference: publication PMC5141248 (Biochemistry, 2016)

Target: human CP4H1 (Homo sapiens, UniProt P13674)
Assay: UPLC peptide hydroxylation assay
Assay type: biochemical
Settings: turnover; cosubstrate 0.1-10 mM, dansylGlyProProGlyOEt 500 μM, Fe(II) 50 μM, ascorbate 2 mM, pH 7.8, 30 °C

human CP4H1, sequence (P13674 18-534): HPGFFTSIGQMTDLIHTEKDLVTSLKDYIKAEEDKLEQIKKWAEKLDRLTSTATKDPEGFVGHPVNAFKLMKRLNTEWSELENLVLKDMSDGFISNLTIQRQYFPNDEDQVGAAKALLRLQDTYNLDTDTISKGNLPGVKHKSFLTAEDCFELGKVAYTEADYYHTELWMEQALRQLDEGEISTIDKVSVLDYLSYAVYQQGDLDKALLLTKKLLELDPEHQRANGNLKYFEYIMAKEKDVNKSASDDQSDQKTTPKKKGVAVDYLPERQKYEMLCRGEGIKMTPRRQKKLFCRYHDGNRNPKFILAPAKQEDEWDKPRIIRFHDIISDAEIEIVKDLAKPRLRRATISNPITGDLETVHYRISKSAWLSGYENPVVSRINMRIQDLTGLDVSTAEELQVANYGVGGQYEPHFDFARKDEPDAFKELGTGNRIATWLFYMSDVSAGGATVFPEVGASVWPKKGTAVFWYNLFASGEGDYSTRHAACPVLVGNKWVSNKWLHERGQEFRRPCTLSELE
human CP4H1, sequence (P07237 18-508 partner): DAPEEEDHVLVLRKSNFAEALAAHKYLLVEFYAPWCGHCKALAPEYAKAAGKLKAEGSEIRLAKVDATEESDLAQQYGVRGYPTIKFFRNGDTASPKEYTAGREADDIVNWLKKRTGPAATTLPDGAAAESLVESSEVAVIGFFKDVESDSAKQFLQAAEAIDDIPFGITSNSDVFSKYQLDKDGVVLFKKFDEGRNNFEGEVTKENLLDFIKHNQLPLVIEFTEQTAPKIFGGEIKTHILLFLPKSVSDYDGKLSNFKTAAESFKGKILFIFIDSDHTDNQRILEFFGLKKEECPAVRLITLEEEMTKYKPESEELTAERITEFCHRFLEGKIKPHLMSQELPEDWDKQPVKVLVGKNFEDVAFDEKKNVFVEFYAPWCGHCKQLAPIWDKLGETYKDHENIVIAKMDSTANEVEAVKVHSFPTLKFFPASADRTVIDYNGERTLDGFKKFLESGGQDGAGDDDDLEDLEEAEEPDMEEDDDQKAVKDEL

O=C(O)CCC(=O)C(=O)O [α-ketoglutarate]
UPLC peptide hydroxylation assay: the reaction was initiated by the addition of α-ketoglutarate
